Among the data in DBAASP are MIC values, retold here.

Holding throughout (test): ≥ marks a high value that may be exact or a test limit, other limits are often not marked, values filed in µg/mL are converted to µM
Assay [1] has as its system Staphylococcus aureus ATCC 15752.
Assay [2] deals with Bacillus subtilis ATCC 62037.
For assay [3], the system named is Cryptococcus neoformans ATCC 34881.
Assay [4] relates to Pseudomonas putida ATCC 17426.
Assay [5] concerns Streptococcus mutans ATCC 25175.
Assay [6] deals with Salmonella enterica subsp. enterica serovar Enteritidis ATCC 13076.
The subject of assay [7] is Candida albicans ATCC 10231.
Assay [8] concerns Escherichia coli ATCC 27325.
Assay [9] deals with Saccharomyces cerevisiae ATCC 44774.
Assay [10] deals with Staphylococcus aureus CCARM 3001.
In assay [11] the test system is Pseudomonas aeruginosa CCARM 2109.
The test system of assay [12] is Pseudomonas aeruginosa KCTC 1637.
Assay [13] deals with Pseudomonas aeruginosa CCARM 2095.
For assay [14], the system named is Staphylococcus aureus KCTC 1621.
For assay [15], the system named is Staphylococcus epidermidis KCTC 1917.
The test system of assay [16] is Bacillus subtilis KCTC 3068.
The subject of assay [17] is Salmonella typhimurium KCTC 1926.
Assay [18] concerns Staphylococcus aureus CCARM 3543.
For assay [19], the system named is Escherichia coli KCTC 1682.
Assay [20] deals with Streptococcus mutans UA159.
The test system of assay [21] is Streptococcus mutans comD.
The subject of assay [22] is Streptococcus gordonii ATCC 10558.
Assay [23] relates to Streptococcus mutans T8.
The subject of assay [24] is Streptococcus mutans ATCC 104495.
In assay [25] the test system is Streptococcus mutans UA140.
The test system of assay [26] is Streptococcus gordonii DL1.
For assay [27], the system named is Streptococcus sanguinis NY101.
For assay [28], the system named is Streptococcus salivarius K12.
The test system of assay [29] is Streptococcus sanguinis ATCC 10556.
In assay [30] the test system is Bacillus subtilis IFO 3336.
Assay [31] relates to Escherichia coli IFO 3301.
The subject of assay [32] is Pseudomonas aeruginosa ATCC 27853.
In assay [33] the test system is Bacillus subtilis ATCC 6633.
Assay [34] concerns Escherichia coli ATCC 25922.
Assay [35] deals with Micrococcus luteus ATCC 10240.
The test system of assay [36] is Staphylococcus aureus ATCC 6538P.
The test system of assay [37] is Salmonella enterica subsp. enterica serovar Typhimurium ATCC 14028.
In assay [38] the test system is Staphylococcus epidermidis ATCC 12228.
Assay [39] relates to Shigella dysenteriae ATCC 9752.
The test system of assay [40] is Staphylococcus aureus TK784.
For assay [41], the system named is Klebsiella pneumoniae ATCC 10031.

Converted amounts (≈) assume the structure as drawn. Where only a bound is given, the exact number is not on record here.

Consider `CC(C)[C@H](NC(=O)[C@H](CCCCN)NC(=O)CNC(=O)CNC(=O)[C@H](CCC(N)=O)NC(=O)[C@H](CCCCN)NC(=O)CNC(=O)[C@H](CCCN=C(N)N)NC(=O)CN)C(=O)N[C@@H](CCCN=C(N)N)C(=O)N[C@@H](C)C(=O)N[C@@H](CCCCN)C(=O)N[C@@H](C)C(=O)N[C@@H](CCCCN)C(=O)N[C@H](C(=O)N[C@@H](CCCN=C(N)N)C(=O)N[C@@H](CO)C(=O)N[C@@H](CO)C(=O)O)[C@@H](C)O` [GRGKQGGKVRAKAKTRSS], for which the MIC in assay [1], in [2], in assay [3], in assay [4], in assay [5] and in assay [6] was ≥ 68.4 µM throughout. In addition, the MIC was > 68.4 µM in assay [7], ≥ 68.4 µM in [8] and ≥ 68.4 µM in assay [9].

`CC(C)C[C@H](NC(=O)[C@H](CC(C)C)NC(=O)[C@H](Cc1c[nH]c2ccccc12)NC(=O)[C@H](CCCCN)NC(=O)[C@H](CC(C)C)NC(=O)[C@H](Cc1c[nH]c2ccccc12)NC(=O)[C@H](CC(C)C)NC(=O)[C@H](CC(C)C)NC(=O)[C@H](Cc1c[nH]c2ccccc12)NC(=O)[C@H](CC(C)C)NC(=O)[C@@H](N)CCCCN)C(N)=O` [KLWLLWLKWLL]: the minimum inhibitory concentration (MIC) in assay [10] was ≥ 64 µM; in [11], ≥ 64 µM; in [12], 16 µM (≈ 24.2 µg/mL); in assay [13], ≥ 64 µM; in assay [14], ≥ 32 µM; in assay [15], ≥ 32 µM. Further, the MIC in assay [16], in [17], in [18] and in assay [19] was ≥ 32 µM throughout.

For `CC[C@H](C)[C@H](NC(=O)CNC(=O)[C@H](CCCCN)NC(=O)[C@H](CCCN=C(N)N)NC(=O)[C@@H](NC(=O)[C@@H](NC(=O)[C@H](CCCN=C(N)N)NC(=O)[C@H](CC(C)C)NC(=O)[C@H](CC(N)=O)NC(=O)[C@@H](N)CCCCN)[C@@H](C)CC)[C@@H](C)CC)C(=O)N[C@@H](Cc1cnc[nH]1)C(=O)N[C@H](C(=O)N[C@H](C(=O)N[C@@H](CCCCN)C(=O)N[C@@H](CCCCN)C(=O)N[C@@H](Cc1ccc(O)cc1)C(N)=O)[C@@H](C)CC)[C@@H](C)CC` [KNLRIIRKGIHIIKKY], the MIC in assay [20] is 12.1 µM (≈ 24.1 µg/mL); in assay [21], 15.3 µM (≈ 30.5 µg/mL); in assay [22], ≥ 50 µM; in assay [5] it was 14.8 µM (≈ 29.5 µg/mL); in assay [23], 14.2 µM (≈ 28.3 µg/mL); in assay [24] it was ≥ 33.3 µM. The minimal inhibitory concentration (MIC) is ≥ 33.3 µM in assay [25]; ≥ 41.3 µM in assay [26]; ≥ 33.6 µM in assay [27]; 16.7 µM (≈ 33.3 µg/mL) in [28]; ≥ 50 µM in assay [29].

As to `NC(N)=NCCC[C@H](NC(=O)[C@H](Cc1cnc[nH]1)NC(=O)[C@H](CCCN=C(N)N)NC(=O)[C@H](Cc1cnc[nH]1)NC(=O)[C@H](CCCN=C(N)N)NC(=O)[C@H](Cc1cnc[nH]1)NC(=O)[C@H](CCCN=C(N)N)NC(=O)[C@H](Cc1cnc[nH]1)NC(=O)[C@H](CCCN=C(N)N)NC(=O)[C@@H](N)Cc1cnc[nH]1)C(=O)O` [HRHRHRHRHR], the MIC in assay [30] and in [31] was 6.74 µM (≈ 10 µg/mL) in each case.

In the case of `CC(C)C[C@H](NC(=O)[C@H](Cc1c[nH]c2ccccc12)NC(=O)[C@H](CCCCN)NC(=O)[C@H](CC(C)C)NC(=O)[C@H](CC(C)C)NC(=O)[C@H](Cc1c[nH]c2ccccc12)NC(=O)[C@H](CCCCN)NC(=O)[C@@H](N)CC(C)C)C(=O)N[C@@H](CCCCN)C(N)=O` [LKWLLKWLK], the MIC in assay [32] is 32.6 µM (≈ 40 µg/mL); in assay [33], 4.07 µM (≈ 5 µg/mL); in assay [34], 4.07 µM (≈ 5 µg/mL); in [35] it was 8.15 µM (≈ 9.99 µg/mL); in [36], 2.04 µM (≈ 2.5 µg/mL); in assay [37], 32.6 µM (≈ 40 µg/mL). The MIC was 4.07 µM (≈ 5 µg/mL) in [38], ≥ 32.6 µM in assay [39], 16.3 µM (≈ 20 µg/mL) in assay [40] and 16.3 µM (≈ 20 µg/mL) in [41].

Broadly, the MIC is the lowest concentration found to suppress growth.
